Data taken from US9206136B2, “Pyrazolyl-based carboxamides I” (Grünenthal GmbH, priority 2013, dated 2015).

What was measured:
[1] = target: T1, CRAC channel (endogenous SOC in HEK293 cells) (Homo sapiens, UniProt Q96D31); assay: HEK Calcium Influx Assay (FLIPR); type: cell-based; conditions: 10 μM compound, thapsigargin store depletion, Ca2+ signal 9.5-10 min post-administration, read-out: % inhib. [@ 10 μM] FLIPR
T1 construct: host or cells: HEK293
Experimental: Compounds of the invention have been tested for their effects on CRAC channels according to the following or similar procedures.
The effect of compounds of the invention on intracellular [Ca^2+] was tested in the HEK293 cell line (ECACC).
HEK293 cells were cultured in DMEM/F12/Glutamax (Gibco) containing 10% FCS (Gibco), and maintained at 37° C., 5% CO2. Cell were split twice a week [3·10^6 (Mon-Thu) and 1·10^6 (Thu-Mon) cells/50 ml medium in T-175 ZK culture flasks, respectively]. 24 hours pre-experiment, cells were seeded on 96 well plates (Poly-D-Lysine 96well Black/Clear Plate, BD Biocoat REF 356640) at a density of 40,000 cells/well in DMEM/F12 (Gibco) containing 10% FCS (Gibco), and maintained at 37° C., 5% CO2.
Prior to store-depletion, cell culture medium was removed and cells were loaded with the a Ca^2+-sensitive fluorescent dye comprised within the Calcium-4-assay kit (Molecular Devices) in nominally Ca^2+-free HBS buffer (140 mM NaCl, 4 mM KCl, 0.2 mM MgCl2, 11 mM D-glucose, and 10 mM HEPES, pH 7.4) according to manufacturer's instruction for 60 min at 37° C., 5% CO2.
Passive depletion of intracellular Ca^2+-stores was then triggered by employing the SERCA inhibitor thapsigargin (2 μM final) for 10 min in the dark (rt). To prevent immediate Ca^2+-entry via the activated Store-operated channels (SOCs), cells were maintained in Ca^2+-free HBS buffer comprising 100 μM EGTA during store-depletion.
Intracellular changes in [Ca^2+] were subsequently monitored with the FLIPR device (Molecular Devices). In brief, baseline imaging post-store depletion was allowed for 1 min before adjusting the extracellular buffer to 3 mM CaCl2. Increases in intracellular [Ca^2+] due to pre-activated SOC channels were monitored for 15 min until intracellular Ca^2+ levels had declined into a steady-state. Finally, compounds were administered and Ca^2+ signals were recorded for additional 10 min.
Inhibition of endogenous SOC in HEK293 cells was quantified employing the average Ca^2+ signal measured from 9.5-10 min post-administration. Zero percent inhibition (MAX) was defined as the Ca^2+ signal recorded from wells to which DMSO-only had been added instead of compound. Hundred percent inhibition (MIN) was defined as the signal obtained from wells in which cells haven't been treated with TG prior to Ca^2+ addition and to which DMSO-only had been added instead of compound. For routine IC50 determinations of compounds, 8 concentrations of a serial dilution (1:3.16) were tested, starting off from 10 μM. Reliable IC50's could consequently be determined only, if they were at least sub 2.5-3 μM.

[2] = tested on: Interleukin-2 (IL-2) production/release in Jurkat T cell line clone E6-1; assay: Jurkat IL-2 Production Assay; type: cell-based; conditions: Homo sapiens; Jurkat T cells stimulated with 15 μg/ml PHA for 22 hours; IL-2 in supernatant (AlphaLisa)
Experimental: Jurkat IL-2 Production Assay
The effect of compounds of the invention on Interleukin-2 (IL-2) production/release was tested in the Jurkat T cell line (ECACC) clone E6-1.
Jurkat T cells were cultured in DMEM/F12/Glutamax (Gibco) containing 10% FCS (Gibco), and maintained at 37° C., 5% CO2. Cells were split twice a week [5·10^6 (Mon-Thu) and 1·10^7 (Thu-Mon) cells/50 ml medium in T-175 ZK culture flasks, respectively].
Prior to experiment, cells were seeded on 96 well plates (Cellstar 96 Well; Cat No. 655180, Greiner bio-one) at a density of 5·10^5 cells/well in DMEM/F12/Glutamax (Gibco) containing 10% FCS (Gibco), and incubated for 60 min at 37° C., 5% CO2. Subsequently, compounds were added and cells were allowed to incubate for 30 min at 37° C., 5% CO2. Cells were then stimulated with 15 μg/ml Phyto-hemagglutinin (PHA; Sigma) for 22 hours at 37° C., 5% CO2.
Before sampling of the supernatants, cells were spun down (200*g/5 min/RT). The amount of IL-2 released into the supernatant was quantified with the human IL-2 AlphaLisa kit (Perkin Elmer) according to manufacturer's instructions. Luminescence proximity measurements were carried out in the Synergy H4 reader (BioTek) employing the fluorescence setting of the reader (ex: 680/30 nm; em: 620/40 nm).
Inhibition of IL-Production/Release in/from Jurkat T Cells Cells was Quantified as Follows:
Zero percent inhibition (MAX) was defined as the [IL-2] determined in supernatants derived from cells to which PHA & DMSO-only had been added instead of compound. Hundred percent inhibition (MIN) was defined as the [IL-2] determined in supernatants derived from cells that had been pre-treated with 1 μM CyclosporineA (Sigma) before the addition of 15 μg/ml PHA.
For routine IC50 determinations of compounds, 8 concentrations of a serial dilution (1:3.16) were tested, starting off from 10 μM.

T1 sequence (Q96D31 whole entry): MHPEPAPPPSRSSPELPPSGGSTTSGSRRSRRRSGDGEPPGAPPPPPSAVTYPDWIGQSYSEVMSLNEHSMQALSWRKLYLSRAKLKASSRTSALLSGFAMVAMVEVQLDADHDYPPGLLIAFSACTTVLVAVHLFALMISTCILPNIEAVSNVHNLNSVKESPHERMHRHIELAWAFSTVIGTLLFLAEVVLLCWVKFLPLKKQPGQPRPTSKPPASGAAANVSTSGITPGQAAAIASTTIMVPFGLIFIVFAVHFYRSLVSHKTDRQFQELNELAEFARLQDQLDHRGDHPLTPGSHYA

`COc1ccc(-c2nccs2)cc1-c1c(N)c(C(=O)Nc2c(F)cncc2F)nn1C` [Example 47, 4-amino-N-(3,5-difluoropyridin-4-yl)-5-(2-methoxy-5-(thiazol-2-yl)phenyl)-1-methyl-1H-pyrazole-3-carboxamide] was tested, and the inhibition at 10 µM [1] was < 50% and the IC50 [2] was 1 to 5 µM.

`Cn1nc(C(=O)Nc2c(F)cccc2F)cc1-c1ccc(C2CC2)cc1OC(F)(F)F` [Example 39, 5-[4-Cyclopropyl-2-(trifluoromethyloxy)-phenyl]-N-(2,6-difluoro-phenyl)-1-methyl-1H-pyrazole-3-carboxylic acid amide] was tested, and the inhibition at 10 µM [1] was > 70% and the IC50 [2] was < 0.5 µM.

With `Cn1nc(C(=O)Nc2ccncc2F)cc1-c1cc(C2CC2)ccc1OC(F)(F)F` [Example 38, 5-[5-Cyclopropyl-2-(trifluoromethyloxy)-phenyl]-N-(3-fluoro-pyridin-4-yl)-1-methyl-1H-pyrazole-3-carboxylic acid amide] the inhibition at 10 µM [1] was > 70% and the IC50 [2] was 1 to 5 µM.

With `COc1ccc(C2CC2)cc1-c1cc(C(=O)Nc2c(F)cccc2F)nn1C` [Example 16, 5-(5-Cyclopropyl-2-methoxy-phenyl)-N-(2,6-difluoro-phenyl)-1-methyl-1H-pyrazole-3-carboxylic acid amide] the inhibition at 10 µM [1] was > 70% and the IC50 [2] was < 0.5 µM.

`Cn1nc(C(=O)Nc2ccncc2F)cc1-c1cc(-c2ncco2)ccc1OC(F)(F)F` [Example 31, N-(3-Fluoro-pyridin-4-yl)-1-methyl-5-[5-oxazol-2-yl-2-(trifluoromethyloxy)-phenyl]-1H-pyrazole-3-carboxylic acid amide] was tested, and the inhibition at 10 µM [1] was 50 to 70% and the IC50 [2] was 1 to 5 µM.

With `Cc1ccc(-c2ccnc(N)c2)cc1-c1cc(C(=O)Nc2c(F)cccc2F)nn1C` [Example 20, 5-[5-(2-Amino-pyridin-4-yl)-2-methyl-phenyl]-N-(2,6-difluoro-phenyl)-1-methyl-1H-pyrazole-3-carboxylic acid amide] the inhibition at 10 µM [1] was 50 to 70% and the IC50 [2] was 0.5 to 1 µM.
